Test results reported in patent US4596824A, “p-Aminophenol with mucosecretolytic-fluidizing and antipyretic activity, a process for its preparation and pharmaceutical compositions thereof” (Camillo Corvi S.p.A., priority 1984, dated 1986).

How the values were obtained:
[1] = Pharmacokinetics: plasma levels in the rat after oral administration (HPLC); type: in vivo; conditions: Wistar rats, fasted, 400 mg/kg oral single administration, 0.5-6 h
Method: For this study, two groups of Wistar rats (170 280 g), fasting about 15 hours before treatment, are utilized. The animals were allowed to drink an aqueous 10% glucose solution. To the rats, the compound of formula I, by oral way (transoesophageal intubation) is administered at the dose of 400 mg/kg (a single administration) and at 0.5 h; 1 h; 1.5 h; 2 h; 3 h; 4 h; 6 h from administration, 5 rats/time are sacrificed. The blood, as collected into test tubes containing sodium heparin, is centrifuged and the plasma so obtained is utilized for quantitative analysis of the compound of formula (I) of the invention by means of high pressure liquid chromatography (HPLC) with an U.V. detector.

[2] = test system: bronchial secretion (mucoproduction); test: Bronchosecretagogue activity (mucoproduction) in the rabbit; type: in vivo, rabbit (male brown); conditions: oral, relative activity, d,l-trans-sobrerol taken equal to 100
Method: Method of mucoproduction in the rabbit according to Scuri R. et al Boll. Chem. Farm.
Male brown rabbits weighing 2.8-3.5 kg are used. To said animals, by a surgical operation under anaesthesia, a T shaped tracheal cannula is applied, as described in the above bibliographic reference.
To the cannula, a container (a polypropylene 2 ml test tube) is applied for periodical collection of the bronchial secretion. The study of mucoproduction, started at the fourth day after the operation, is divided into two 4 hour periods for collecting and measuring the mucus, and precisely from 8:30 to 12:30 (I), and from 12:30 to 16:30 (II).
The activity of each drug is tested by administering the same by oesophageal way (os) at the beginning of the II period and by evaluating the percent increase of mucoproduction (weight of the mucus as collected) in the II period as compared with the I period.

in vivo = conditions: mouse, po
Description: Method of studying LD50 in the mouse after a single oral administration.
Thereafter, the animals are fed again (Morini MIL fodder for mice).

[3] = test system: rectal temperature, dry yeast-induced fever; test: Antipyretic activity in the rat (dry yeast fever); type: in vivo, rat (albino Wistar female); conditions: for Antipyretic activity: rat, oral, temperature index over 4-25 h, relative activity, p-aminophenol taken equal to 100
Method: Method for studying the antipyretic activity in the rat.
Albino Wistar female rats, weighing 100-140g, are utilized. The animals having a rectal, basal temperature from 36° to 37° C. are selected.
The test substances are administered by oral way contemporaneously with the pyretic agent (dry yeast, suspended in water at the 20% concentration; volume administered 15 ml/kg subcutaneously) at groups of 5 animals per dose.
After 4,5,6,7 and 25 hours from the treatment, the rectal temperature of the animals is measured by an Ellab RM6 probe, connected to an Ellab mod. TE-3 thermometer.
The activity of the drugs is evaluated by utilizing a temperature index which is provided by the algebraic sum of the differences in the rectal temperature between the measure values at the various times and the basal value.

[4] = test system: bronchial mucus of bronchitic rabbits; test: Fluidizing "in vivo" activity: viscosity of bronchial mucus of bronchitic rabbits; parameters: species or system rabbit (male, bronchitic by sulphuric acid aerosol); conditions: for Fluidizing "in vivo" activity of bronchial mucus: bronchitic rabbits, oral, relative activity, d,l-trans-sobrerol taken equal to 100
Method: The viscosity of the mucus as withdrawn is studied by using a Contraves RM16 microviscosimeter and it is recorded by a Rheomat 15 T-FC apparatus.

| Structure (SMILES) | absorption (course of the plasmatic levels) [1] | Bronchosecretagogue activity [2] | LD50 at 336 h (in vivo) [mg/kg] | Antipyretic activity [3] | antipyretic activity compared with paracetamol or any drug of the same therapeutical class ([3]; statement in words) | Fluidizing "in vivo" activity of bronchial mucus [4] | mucosecretolytic-fluidizing activity ([4]; statement in words, versus activity ascribed to the d,l-trans-sobrerol moiety) |
| --- | --- | --- | --- | --- | --- | --- | --- |
| CC1=CC[C@H](C(C)(C)O)C[C@H]1OC(=O)CCC(=O)Nc1ccc(O)cc1 (relative stereo) [CO/1499, 5-[3-N-[(4-hydroxyphenyl)carboxamido]-1-oxo-propxy]-α,α-4-trimethyl-3-cyclohexene-1-methanol] | quick and good absorption | 131 | 2070 | 127 | equivalent of a dose of either paracetamol or any drug of the same therapeutical class | 120 | potency increase |
| Nc1ccc(O)cc1 [p-aminophenol] | – | 0 | – | 100 | – | 0 | – |
| CC1=CC[C@H](C(C)(C)O)C[C@H]1O (relative stereo) [d,l-trans-sobrerol] | – | 100 | 2340 | 0 | – | 100 | – |
